Laboratory results published in patent US20230121689A1, “CEPHALOSPORIN ANTIBACTERIAL COMPOUND AND PHARMACEUTICAL APPLICATION THEREOF” (priority 2020, published 2023).
Where two headings read alike, the source gives them in different places.

How the values were obtained:
[1] = Test Example 3: pharmacokinetic study in cynomolgus monkeys; format: in vivo; conditions: cynomolgus monkey, plasma, 10 mg/kg single intravenous infusion, individual animals
Procedure: An appropriate amount of a test compound was weighed precisely and added to a container, and 0.9% sodium chloride injection and 0.2 M NaOH solution were added thereto in an ice bath until the test compound was completely dissolved, so that a sample solution at a concentration of 2 mg/mL was obtained followed by storage at 2-8° C. for later use.
Species and strain: cynomolgus monkey Animal grade: general grade Animal source: Guangxi Xiongsen Primate Experimental Animal Breeding Development Co., Ltd. Number of the using of laboratory animal: SYXK (Su) 2019-0012
6 cynomolgus monkeys (half male and half female) were selected and randomly divided into 3 groups with 1 animal/sex in each group. The cynomolgus monkeys were administered with the test sample at a dose of 10 mg/kg by the single intravenous infusion. Blood samples were collected from each group of animals at the following time points: before administration, and 5 min, 15 min, 0.5 h, 1 h, 2 h, 4 h, 6 h, and 8 h after administration. In the test, the concentration of each test compound in the plasma of the cynomolgus monkey was detected by the LC-MS/MS method, and the lower limit of quantification of the analysis methods for the plasma samples were all 1 μg/mL. The plasma concentration data were analyzed by the non-compartmental analysis (NCA) of the analysis software for pharmacokinetic data, WinNonlin, pharmacokinetic parameters were calculated, and pharmacokinetic characteristics of the test compounds in cynomolgus monkeys after administration were investigated, with the results shown in the following table

[2] = tested on: Carbapenem-resistant Enterobacteriaceae (CRE, Klebsiella pneumoniae); experiment: Test Example 2: antibacterial activity test (MIC); format: cell-based; conditions: ID-CAMHB, read-out: ID-CAMHB, MIC
Procedure: (§1) 1. The test compounds were dissolved in sterile normal saline, vortexed for uniformly mixing, and diluted in a 2-fold dilution with the sterile normal saline (11 concentration points in total). The test concentration range was 32-0.031 μg/mL, and two duplicate wells were set for each concentration. Additional wells without drug dosing were set as growth controls. 2. 4 μL of the diluent was added to 196 μL of the bacterial suspension in a 96-well plate (the bacterial count in the bacterial suspension was 2-8×10^5 colony forming units/mL). 3.
(§2) The minimum inhibitory concentration (MIC) assay was performed with reference to the Clinical and Laboratory Standards Institute (CLSI) guidelines.

[3] = tested on: Control Strain Pseudomonas aeruginosa ATCC 27853; experiment: Test Example 2: antibacterial activity test (MIC); format: cell-based; conditions: ATCC27853, ID-CAMHB, ATCC 27853, read-out: ID-CAMHB, MIC
Procedure: as §1, §2

[4] = tested on: Control strain Escherichia coli ATCC 25922; experiment: Test Example 2: antibacterial activity test (MIC); format: cell-based; conditions: ATCC25922, ID-CAMHB, ATCC 25922, read-out: ID-CAMHB, MIC
Procedure: as §1, §2

[5] = tested on: Carbapenem-resistant Pseudomonas aeruginosa (CRPA, Pseudomonas aeruginosa); experiment: Test Example 2: antibacterial activity test (MIC); format: cell-based; conditions: ID-CAMHB, read-out: ID-CAMHB, MIC
Procedure: as §1, §2

[6] = tested on: Carbapenem-resistant Acinetobacter baumannii (CRAB, Acinetobacter baumannii); experiment: Test Example 2: antibacterial activity test (MIC); format: cell-based; conditions: ID-CAMHB, read-out: ID-CAMHB, MIC
Procedure: as §1, §2

[7] = both sexes, cynomolgus, iv, 10 mg/kg

Question: Which AUC(0-inf) [1, 7] does the source give for `CC(C)(O/N=C(\C(=O)N[C@@H]1C(=O)N2C(C(=O)O)=C(C[N+]3(CCN(CCCNC(=O)c4ccc(O)c(O)c4Cl)C(=O)c4ccc(O)c(O)c4Cl)CCCC3)CS[C@H]12)c1csc(N)n1)C(=O)O` [Compound 10] here?
Answer: The AUC(0-inf) was 32900 ng·h/mL.

Question: What about the AUC(0-t) [1, 7] of the same compound?
Answer: Its AUC(0-t) is 29300 ng·h/mL.

Question: And the clearance [1, 7]?
Answer: Its clearance is 5.06 mL/min/kg.

Question: What about the half-life [1, 7] of the same compound?
Answer: Its half-life is 37.2 min.

Question: And the Cmax ([1]; both sexes, cynomolgus, iv, 10 mg/kg, read-out: Cmax)?
Answer: The Cmax was 35500 ng/mL.

Question: What about the MRT ([1]; both sexes, cynomolgus, iv, 10 mg/kg, read-out: MRT) of the same compound?
Answer: The MRT was 38.4 min.

Question: And the Vd ([1]; both sexes, cynomolgus, iv, 10 mg/kg, read-out: Vd)?
Answer: Its Vd is 0.27 L/kg.

Question: And the Tmax ([1]; both sexes)?
Answer: Its Tmax is 4.8 min.

Question: And the AUC last ([1]; 10 mg/kg)?
Answer: The AUC last was 23440 ng·h/mL.

Question: And the AUCinf ([1]; 10 mg/kg)?
Answer: The AUCinf was 25640 ng·h/mL.

Question: And the CL ([1]; 10 mg/kg)?
Answer: The CL was 6.5002 mL/min/kg.

Question: And the Cmax ([1]; 10 mg/kg)?
Answer: The Cmax was 30640 ng/mL.

Question: What about the MRT ([1]; 10 mg/kg) of the same compound?
Answer: The MRT was 37.2 min.

Question: What about the Vd ([1]; 10 mg/kg) of the same compound?
Answer: Its Vd is 0.31334 L/kg.

Question: And the t1/2 ([1]; 10 mg/kg)?
Answer: Its t1/2 is 33.6 min.

Question: And the MIC ([2]; FDA-CDC AR-BANK #0361 (TEM-1; SHV-12; KPC-2))?
Answer: Its MIC is 0.25 µg/mL.

Question: And the MIC ([2]; FDA-CDC AR-BANK #0363 (TEM-1; SHV-12; KPC-2))?
Answer: Its MIC is 0.125 µg/mL.

Question: And the MIC ([2]; FDA-CDC AR-BANK #0438 (aph(3′)-Ia, dfrA12, KPC-3, OmpK35, oqxA, oqxB, SHV-11))?
Answer: Its MIC is 0.5 µg/mL.

Question: And the MIC ([2]; FDA-CDC AR-BANK #0453 (KPC-3, OmpK35, oqxA, oqxB, SHV-11, TEM-1B))?
Answer: Its MIC is 2 µg/mL.

Question: What about the MIC [3] of the same compound?
Answer: The MIC was 0.0625 µg/mL.

Question: What about the MIC [4] of the same compound?
Answer: Its MIC is 0.0625 µg/mL.

Question: And the MIC ([5]; FDA-CDC AR-BANK #0439 (aac(6′)-Il, aadA1b, BCR1, IMP-18, OXA-50))?
Answer: Its MIC is 0.25 µg/mL.

Question: What about the MIC ([5]; FDA-CDC AR-BANK #0441 (KPC-2)) of the same compound?
Answer: The MIC was 1 µg/mL.

Question: And the MIC ([5]; FDA-CDC AR-BANK #0444 (aac(6′)-Il, dfrB5, OXA-4, tet(G), VIM-2))?
Answer: Its MIC is 16 µg/mL.

Question: What about the MIC ([5]; FDA-CDC AR-BANK #0457 (aadA6, VIM-2)) of the same compound?
Answer: Its MIC is 0.0625 µg/mL.

Question: And the MIC ([6]; FDA-CDC AR-BANK #0036 (strB, OXA-65, OXA-24, strA, sul2))?
Answer: Its MIC is 0.125 µg/mL.

Question: And the MIC ([6]; FDA-CDC AR-BANK #0052 (OXA-58, OXA-100, sul2))?
Answer: Its MIC is 0.0625 µg/mL.

Question: What about the MIC ([6]; FDA-CDC AR-BANK #0063 (OXA-23, OXA-65, OXA-24, sul2)) of the same compound?
Answer: The MIC was over 32 µg/mL.

Question: What about the MIC ([6]; FDA-CDC AR-BANK #0070 (OXA-58, OXA-100, sul2)) of the same compound?
Answer: Its MIC is 0.125 µg/mL.

Question: What about the MIC ([6]; FDA-CDC AR-BANK #0101 (strB, OXA-65, OXA-24, strA, sul2)) of the same compound?
Answer: The MIC was 0.5 µg/mL.
